assay: recombinant barcode read abundance after kanamycin selection (control-corrected) (log10(CPM+1)); higher = more efficient recombination; sequences stand for … in AGTGCAGAGAAAATCGGCCAGTTTTCTCTGCCTGCAGTCCGCATGCCGT…AGATTTATGCAGCGGACTGCCTTTCTCCCAAAGTGATAAACCGGACAGTATCATGGACCGGTTTTCCCGGTAATCCGTATTTGCAAGGTTGGTTTCACT; site = the 11-nt target
Procedure, shortened: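 In E. coli, a pooled library matched targets to IS621 bridge RNA target-binding loops and was introduced alongside a donor plasmid. Cells went onto chloramphenicol/ampicillin/kanamycin with 0.1 mM IPTG or onto chloramphenicol/ampicillin LB agar as control, in duplicate. Recombination efficiency, from recombinant-junction barcodes as counts per million, is averaged and control-corrected. It is reported as log10(CPM+1).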
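Note: IS621 recombinase and bridge RNA in Escherichia coli cells.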

| Sequence | recombinant barcode read abundance (log10) |
| --- | --- |
| GTTAGCCCTTGGGTTCTAACCTGTTGCGG (site GTTAGCCCTCC) | 1.79 |
| GTTCCTGCTTGGGTTCTAACCTGTTGCCT (site GTTCCTCCTAG) | 0.265 |
| GTTCCTGCTTGGGTTCTAACCTGTTGCCT (site GTTCCTGCTAG) | 0.86 |
| GTTCGAGCTTGGGTTCTAACCTGTTGCCT (site GTTAGAGCTAG) | 0.276 |
| GTTCGAGCTTGGGTTCTAACCTGTTGCCT (site GTTCGAGCTAG) | 1.61 |
| GTTCGAGCTTGGGTTCTAACCTGTTGCCT (site GTTGGAGCTAG) | 0.114 |
| GTTCGAGCTTGGGTTCTAACCTGTTGCCT (site GTTTGAGCTAG) | 0.153 |
| GTTCGAGCTTGGGTTCTAACCTGTTGCGG (site ATTCGAGCTCC) | 1.74 |
| GTTCGAGCTTGGGTTCTAACCTGTTGCGG (site GTTCGAGCTCC) | 2.49 |
| GTTGACCCTTGGGTTCTAACCTGTTGCCT (site GTAGACCCTCG) | 0.0195 |
| GTTGACCCTTGGGTTCTAACCTGTTGCCT (site GTTGACCCTAG) | 2.2 |
| GTTGGCCCTTGGGTTCTAACCTGTTGCCT (site GATGGCCCTAG) | 0.579 |
| GTTGGCCCTTGGGTTCTAACCTGTTGCCT (site GCTGGCCCTAG) | 0.306 |
| GTTGGCCCTTGGGTTCTAACCTGTTGCCT (site GGTGGCCCTAG) | 0.152 |
| GTTGGCCCTTGGGTTCTAACCTGTTGCCT (site GTTGGCCCTAG) | 1.94 |
| GTTGGTCCTTGGGTTCTAACCTGTTGCGT (site GTGAGTCCTAC) | 0.136 |
| GTTGGTCCTTGGGTTCTAACCTGTTGCGT (site GTTGGTCCTAC) | 2.76 |
| GTTTAAACTTGGGTTCTAACCTGTTGCCT (site GTTTAAACTAG) | 0.809 |
| GTTTAAACTTGGGTTCTAACCTGTTGCCT (site GTTTACGCTAG) | 0.0493 |
| GTTTACGCTTGGGTTCTAACCTGTTGCCT (site GTTTAAACTAG) | 0.0797 |
| GTTTACGCTTGGGTTCTAACCTGTTGCCT (site GTTTACGCTAG) | 1.96 |
| GTTTCTACTTGGGTTCTAACCTGTTGCTA (site ATTTCTACTTC) | 0.128 |

| Sequence | recombinant barcode read abundance (log10) |
| --- | --- |
| GTTTCTACTTGGGTTCTAACCTGTTGCTA (site GTTTCTACTTA) | 0.0482 |
| GTTTCTTCTTGGGTTCTAACCTGTTGCCT (site GATTCTTCTAG) | 0.304 |
| GTTTCTTCTTGGGTTCTAACCTGTTGCCT (site GCTTCTTCTAG) | 0.0824 |
| GTTTCTTCTTGGGTTCTAACCTGTTGCCT (site GGTTCTTCTAG) | 0.171 |
| GTTTCTTCTTGGGTTCTAACCTGTTGCCT (site GTTTCTTCTAG) | 0.0189 |
| GTTTGATCTTGGGTTCTAACCTGTTGCCT (site GTTTGATCTAG) | 0.172 |
| GTTTGATCTTGGGTTCTAACCTGTTGCCT (site GTTTGCTCTAG) | 0.029 |
| GTTTGATCTTGGGTTCTAACCTGTTGCCT (site GTTTGGTCTAG) | 0.212 |
| GTTTGATCTTGGGTTCTAACCTGTTGCCT (site GTTTGTTCTAG) | 0 |
| GTTTGCCCTTGGGTTCTAACCTGTTGCTT (site GTTTGACCTAA) | 0.0376 |
| GTTTGCCCTTGGGTTCTAACCTGTTGCTT (site GTTTGCCCTAA) | 0.0681 |
| GTTTGCCCTTGGGTTCTAACCTGTTGCTT (site GTTTGGCCTAA) | 0.0442 |
| GTTTGCCCTTGGGTTCTAACCTGTTGCTT (site GTTTGTCCTAA) | 0.164 |
| GTTTGCTCTTGGGTTCTAACCTGTTGCCT (site GTTTGATCTAG) | 0.0882 |
| GTTTGCTCTTGGGTTCTAACCTGTTGCCT (site GTTTGCTCTAG) | 0.635 |
| GTTTGCTCTTGGGTTCTAACCTGTTGCCT (site GTTTGGTCTAG) | 0.416 |
| GTTTGCTCTTGGGTTCTAACCTGTTGCCT (site GTTTGTTCTAG) | 0.115 |
| GTTTGTCCTTGGGTTCTAACCTGTTGCTT (site GTTTGACCTAA) | 0.178 |
| GTTTGTCCTTGGGTTCTAACCTGTTGCTT (site GTTTGCCCTAA) | 0.0342 |
| GTTTGTCCTTGGGTTCTAACCTGTTGCTT (site GTTTGGCCTAA) | 0.644 |
| GTTTGTCCTTGGGTTCTAACCTGTTGCTT (site GTTTGTCCTAA) | 0.048 |
| TAAAGGCCTTGGGTTCTAACCTGTTGCTA (site CAAAGGTCTTA) | 0.218 |

| Sequence | recombinant barcode read abundance (log10) |
| --- | --- |
| TAAAGGCCTTGGGTTCTAACCTGTTGCTA (site TAAAGGCCTTA) | 0.159 |
| TAAAGGGCTTGGGTTCTAACCTGTTGCCT (site TAAAGGGCTAG) | 0.4 |
| TAAAGGGCTTGGGTTCTAACCTGTTGCCT (site TAACGGGCTCG) | 0.0341 |
| TAAATAGCTTGGGTTCTAACCTGTTGCCT (site TAAATAGCTAG) | 0.881 |
| TAAATAGCTTGGGTTCTAACCTGTTGCCT (site TAATTAGCTAG) | 0.243 |
| TAAATCCCTTGGGTTCTAACCTGTTGCGA (site ACGGAATCTCG) | 0.0648 |
| TAAATCCCTTGGGTTCTAACCTGTTGCGA (site TAAATCCCTTC) | 1.22 |
| TAACATACTTGGGTTCTAACCTGTTGCAT (site TAACATACTAT) | 1.22 |
| TAACATACTTGGGTTCTAACCTGTTGCAT (site TAACCTACTAT) | 0.139 |
| TAACATACTTGGGTTCTAACCTGTTGCAT (site TAACGTACTAT) | 0.233 |
| TAACATACTTGGGTTCTAACCTGTTGCAT (site TAACTTACTAT) | 0.0391 |
| TAACCATCTTGGGTTCTAACCTGTTGCCT (site TAACCATCTAG) | 0.266 |
| TAACCATCTTGGGTTCTAACCTGTTGCCT (site TACCCATCTAG) | 0.0574 |
| TAACCATCTTGGGTTCTAACCTGTTGCCT (site TAGCCATCTAG) | 0.0156 |
| TAACCATCTTGGGTTCTAACCTGTTGCCT (site TATCCATCTAG) | 0.0811 |
| TAACCTGCTTGGGTTCTAACCTGTTGCCT (site TAACCTACTAG) | 0.532 |
| TAACCTGCTTGGGTTCTAACCTGTTGCCT (site TAACCTCCTAG) | 0.0336 |
| TAACCTGCTTGGGTTCTAACCTGTTGCCT (site TAACCTGCTAG) | 0.889 |
| TAACCTGCTTGGGTTCTAACCTGTTGCCT (site TAACCTTCTAG) | 0.624 |
| TAACCTTCTTGGGTTCTAACCTGTTGCCT (site TAACCTACTAG) | 0 |
| TAACCTTCTTGGGTTCTAACCTGTTGCCT (site TAACCTCCTAG) | 0.019 |
| TAACCTTCTTGGGTTCTAACCTGTTGCCT (site TAACCTGCTAG) | 0.00987 |

| Sequence | recombinant barcode read abundance (log10) |
| --- | --- |
| TAACCTTCTTGGGTTCTAACCTGTTGCCT (site TAACCTTCTAG) | 0.472 |
| TAAGACCCTTGGGTTCTAACCTGTTGCCT (site TAAGACCCTAG) | 2.33 |
| TAAGACCCTTGGGTTCTAACCTGTTGCCT (site TCAGACCCTAG) | 0.454 |
| TAAGACGCTTGGGTTCTAACCTGTTGCCT (site TAAGACGCTAG) | 2.33 |
| TAAGACGCTTGGGTTCTAACCTGTTGCCT (site TACGACGCTAG) | 0.0565 |
| TAAGACGCTTGGGTTCTAACCTGTTGCCT (site TAGGACGCTAG) | 0.729 |
| TAAGACGCTTGGGTTCTAACCTGTTGCCT (site TATGACGCTAG) | 1.05 |
| TAAGGTCCTTGGGTTCTAACCTGTTGCTT (site AGGTCAACTCG) | 0.224 |
| TAAGGTCCTTGGGTTCTAACCTGTTGCTT (site TAAGGTCCTAA) | 1.49 |
| TAAGTACCTTGGGTTCTAACCTGTTGCCT (site AAAGTACCTAG) | 1.12 |
| TAAGTACCTTGGGTTCTAACCTGTTGCCT (site CAAGTACCTAG) | 0.517 |
| TAAGTACCTTGGGTTCTAACCTGTTGCCT (site GAAGTACCTAG) | 0.029 |
| TAAGTACCTTGGGTTCTAACCTGTTGCCT (site TAAGTACCTAG) | 1.88 |
| TAATATTCTTGGGTTCTAACCTGTTGCCT (site TAATATTCTAG) | 0.0128 |
| TAATATTCTTGGGTTCTAACCTGTTGCCT (site TAGGATTCTAG) | 0.041 |
| TAATCCTCTTGGGTTCTAACCTGTTGCCT (site AAATCCTCTAG) | 0.984 |
| TAATCCTCTTGGGTTCTAACCTGTTGCCT (site CAATCCTCTAG) | 0.0292 |
| TAATCCTCTTGGGTTCTAACCTGTTGCCT (site GAATCCTCTAG) | 0.0754 |
| TAATCCTCTTGGGTTCTAACCTGTTGCCT (site TAATCCTCTAG) | 1.3 |
| TAATCGACTTGGGTTCTAACCTGTTGCCT (site TAATCGACTAG) | 0.102 |
